Results from the NIST ThermoML archive (doi:10.1021/je0301242).
± gives the expanded uncertainty stated by the source.

Assay: excess molar enthalpy (molar enthalpy of mixing); xn = mol fraction of the nth substance listed
Conditions: 323.15 K, Liquid, Flow calorimetry

With `COC` [dimethyl ether] + CCC the excess molar enthalpy (3060 kPa, x2 = 0.0397) was 0.022 ± 0.000478 kcal/mol, the excess molar enthalpy (3060 kPa, x2 = 0.0803) was 0.0428 ± 0.000717 kcal/mol and the excess molar enthalpy (3060 kPa, x2 = 0.1218) was 0.0629 ± 0.000956 kcal/mol. It also gave an excess molar enthalpy (3060 kPa, x2 = 0.1643) of 0.0813 ± 0.000956 kcal/mol, an excess molar enthalpy (3060 kPa, x2 = 0.2076) of 0.0978 ± 0.0012 kcal/mol and an excess molar enthalpy (3060 kPa, x2 = 0.252) of 0.112 ± 0.00143 kcal/mol. It also gave an excess molar enthalpy (3060 kPa, x2 = 0.2974) of 0.124 ± 0.00143 kcal/mol, an excess molar enthalpy (3060 kPa, x2 = 0.3439) of 0.135 ± 0.00167 kcal/mol and an excess molar enthalpy (3060 kPa, x2 = 0.3914) of 0.143 ± 0.00167 kcal/mol. It also gave an excess molar enthalpy (3060 kPa, x2 = 0.4401) of 0.147 ± 0.00167 kcal/mol, an excess molar enthalpy (3060 kPa, x2 = 0.49) of 0.15 ± 0.00167 kcal/mol and an excess molar enthalpy (3060 kPa, x2 = 0.5411) of 0.149 ± 0.00167 kcal/mol. For the same compound, the excess molar enthalpy (3060 kPa, x2 = 0.5935) was 0.145 ± 0.00167 kcal/mol, the excess molar enthalpy (3060 kPa, x2 = 0.6472) was 0.137 ± 0.00167 kcal/mol and the excess molar enthalpy (3060 kPa, x2 = 0.7023) was 0.126 ± 0.00143 kcal/mol. It also gave an excess molar enthalpy (3060 kPa, x2 = 0.7587) of 0.109 ± 0.00143 kcal/mol, an excess molar enthalpy (3060 kPa, x2 = 0.8167) of 0.088 ± 0.0012 kcal/mol and an excess molar enthalpy (3060 kPa, x2 = 0.8762) of 0.0609 ± 0.000956 kcal/mol. For the same compound, the excess molar enthalpy (3060 kPa, x2 = 0.9373) was 0.0299 ± 0.000478 kcal/mol.
With `C=CC` [propene] + COC the excess molar enthalpy (3000 kPa, x1 = 0.0427) was 0.00574 ± 0.000239 kcal/mol, the excess molar enthalpy (3000 kPa, x1 = 0.0861) was 0.0112 ± 0.000478 kcal/mol and the excess molar enthalpy (3000 kPa, x1 = 0.1301) was 0.0155 ± 0.000478 kcal/mol. For the same compound, the excess molar enthalpy (3000 kPa, x1 = 0.1748) was 0.0201 ± 0.000478 kcal/mol, the excess molar enthalpy (3000 kPa, x1 = 0.2203) was 0.0241 ± 0.000478 kcal/mol and the excess molar enthalpy (3000 kPa, x1 = 0.2664) was 0.028 ± 0.000478 kcal/mol. The excess molar enthalpy (3000 kPa, x1 = 0.3133) was 0.0306 ± 0.000478 kcal/mol, the excess molar enthalpy (3000 kPa, x1 = 0.361) was 0.0332 ± 0.000478 kcal/mol and the excess molar enthalpy (3000 kPa, x1 = 0.4095) was 0.0354 ± 0.000717 kcal/mol. The excess molar enthalpy (3000 kPa, x1 = 0.4587) was 0.0368 ± 0.000717 kcal/mol, the excess molar enthalpy (3000 kPa, x1 = 0.5088) was 0.0373 ± 0.000717 kcal/mol and the excess molar enthalpy (3000 kPa, x1 = 0.5597) was 0.037 ± 0.000717 kcal/mol. For the same compound, the excess molar enthalpy (3000 kPa, x1 = 0.6115) was 0.0363 ± 0.000717 kcal/mol, the excess molar enthalpy (3000 kPa, x1 = 0.6641) was 0.0347 ± 0.000717 kcal/mol and the excess molar enthalpy (3000 kPa, x1 = 0.7177) was 0.0318 ± 0.000478 kcal/mol. It also gave an excess molar enthalpy (3000 kPa, x1 = 0.7722) of 0.0277 ± 0.000478 kcal/mol, an excess molar enthalpy (3000 kPa, x1 = 0.8277) of 0.0222 ± 0.000478 kcal/mol and an excess molar enthalpy (3000 kPa, x1 = 0.8841) of 0.016 ± 0.000478 kcal/mol. The excess molar enthalpy (3000 kPa, x1 = 0.9415) was 0.00789 ± 0.000239 kcal/mol.
